Data set [1] is described as follows: Vasculotide-specific ELISA of circulating Vasculotide in mouse plasma. In kind it is in vivo, CD1 mice. To be noted: for circulating level in plasma after oral delivery: 2 μg P.O. (gavage). The source says:
Several monoclonal antibodies have been raised against the modified T7 peptide. These antibodies have been extensively validated and used to develop an ELISA which is capable of measuring picogram quantities of Vasculotide in mouse plasma or serum. There is an excellent linear relationship between ELISA signal and Vasculotide concentration with little interference from mouse plasma/serum proteins (FIG. 1C).
The developed ELISA was used to track circulating levels of Vasculotide in the plasma of mice over time. […] The incongruence of these findings is likely due to a paucity of sensitivity in the ELISA-based detection of Vasculotide.

The test system of another data set is acute asthma mice. The data set can be described thus: Acute asthma model (ovalbumin sensitization, intranasal challenge). In kind it is in vivo, Balb/c mice. The method, then:
(Chronic asthma model) Seven week old female Balb/c mice were injected intraperitoneally (IP) with 20 μg of chicken ovalbumin (OVA) absorbed with 1 mg aluminum hydroxide, an adjuvant known to promote the development of a Th2 response by the immune system, on day 0 (denoted by first day injection) and day 7. Full body inhaled exposure to OVA was initiated at day 21. Briefly, these treatments utilized an InExpose full body aerosol chamber (Scireq, Montreal, Canada) where a 1% OVA solution, suspended in PBS, pH 7.45, was nebulized at 0.2 mL/min with a filtered room air flow rate of 2400 mL/min for a total period of 30 minutes, 3 times a week for either 42 (FIG. 13A) or 62 days (FIG. 13B). (Acute asthma model) Seven week old female Balb/c mice were injected intraperitoneally with 50 μg of chicken OVA absorbed with 1 mg aluminum hydroxide on day 0 (denoted by first day injection) and day 7. Aqueous OVA ([…] in PBS) was delivered intranasally daily from day 20 to day 24 (FIG. 2), Vasculotide or saline vehicle (control, PBS) was delivered to the mice via IP injections.
Blood was collected from the left ventricle of anaesthetized mice into heparinized 1 cc syringes. Following collection, blood was placed into Li-heparin microtubes. Subsequently, the tubes were centrifuged at 3000 RPM for 15 minutes at 4° C. Plasma was collected from the top of the samples and frozen at −80° C. for later analysis. The remaining buffy coat and red blood cells were lysed then fixed in 1× lyse/fix buffer (BD Biosciences, Mississauga, Canada) according to manufacturer's instructions.
Twenty-four hours after last aerosol exposure and immediately following exsanguinations, tissue was dissected from neck to expose trachea. A small lateral incision was made in the trachea to allow passage of 23 gauge lavage catheter into trachea. The catheter, attached to a 3 cc syringe containing warmed Hanks buffer, was carefully passed into the lumen of the trachea. A suture was secured around the trachea with a knot to secure the catheter in place. Buffer (1 cc) was injected slowly into the lungs and fully aspirated three times. The volume of recovered buffer was recorded for each animal to facilitate calculation of BAL infiltrate.
Analysis of plasma samples generated for the asthma study was the same as that outlined for the atopic dermatitis study with one small modification. Plasma from mice used in the asthma study was diluted 1:4 instead of 1:8 for the atopic dermatitis samples.
(BAL analysis) Collected BAL fluid was centrifuged at 1000 RPM for 10 minutes at 4° C. BAL fluid was removed and collected for subsequent CBA analysis. The BAL cell pellet was lysed/fixed in 1× lyse/fix buffer according to manufacturer's instructions (BD Biosciences, Mississauga, Canada). The total number of cells contained in each sample was determined by flow cytometry using flow-set beads (Count Bright Beads, Invitrogen), to facilitate sample volume and cell count calculations. A total of 7000 beads were counted for each sample. Flow cytometry analysis was gated on FSC/SSC to eliminate debris and dead cells. Differential cell count analysis was also performed by FACS where surface marker antibodies were used as follows: eosinophils (SSC^hi FITCmed Ige^med), neutrophils (SSC^med FITC^hi Ige^med), monocytes (SSC^med CD11b^+ CD115^+) and lymphocytes (SSC^lo and CD4^+ or CD8^+). In addition to monocyte markers (SSC^med CD11b^+ CD115^+), these cell populations were further characterized using antibodies specific for Tie2, TLR4, and Ly6C. Ly6C^low and Ly6C^high further define monocytes as classical, resident monocytes or inflammatory monocytes, respectively. Identified neutrophils were further labelled with antibodies to Tie2 and TLR4. All cell suspensions were incubated with purified anti-CD16/CD32 mAb (BD Biosciences, Mississauga, ON, Canada) to block non-specific background caused by Fc receptors, followed by incubation with the specific antibodies. […]

Another data set concerns Eo/B progenitors. The data set can be described thus: Modulation of eosinophil/basophil progenitors (Eo/B-CFU). Particulars: preliminary data. In kind it is cell-based. The method, then: Thus, Eo/B from mice and healthy donors are isolated. Eosinophils from the periphery or bone marrow are enriched by magnetic bead sorting using anti CD125 (IL-5Ra) conjugated to magnetic particles. These cells preparations are stimulated with either recombinant Ang1 or Vasculotide and different cellular parameters are measured, including cellular growth, apoptosis, migration and Tie2-specific cellular signaling.
To examine the effect of Vasculotide on Eo/B progenitors, bone marrow colony assays are performed. Human bone marrow preparations are purchased from Stem Cell Technologies (Vancouver, BC) and murine bone marrow are obtained by flushing femurs of normal mice. Non-adherent mononuclear cells are cultured in MethoCult supplemented with IL-5 to optimize for eosinophil/basophil colony formation (Eo/B-CFU). […] The appearance of Eo/B-CFU is measured.
Eo/Bs and their progenitors are harvested from Vasculotide treated asthmatic animals from the periphery or bone marrow. In order to establish an Eo/B cellular profile treated and non-treated animals are harvested on week 1, 2, 4 and 6 and the number of Eo/Bs in the periphery, bone marrow and progenitors is determined. The number of peripheral and bone marrow eosinophils is determined by flow cytometry analysis using Ly6G, CD11b, IgE and free FITC markers. Eo/B progenitors in the bone marrow are measured by Eo/B-CFU assay.

“Also recorded” adds a separate entry of the source.

“Vasculotide: Modified T7 peptide (CHHHRHSF, SEQ ID NO:2) conjugated to 10 kDa tetrameric polyethylene glycol-maleimide; Tie2 binding peptide mimetic”: in data set [1] (2 μg I.P., p=0.0149 PBS vs Vasc), the “time up to which significant levels of circulating Vasculotide are detected by ELISA” value is given as “up to 24 hours”. In addition, in data set [1], the “circulating level in plasma after oral delivery” value was “no significant levels”. For the same substance, in data set [1] (listed as Vasc-PEG), the “circulating level in plasma after oral delivery” value is “did not result in any detectable levels”. In addition, the “circulating level in plasma at 24 hours post injection” value in data set [1] (I.P., unpaired student t-test vs PBS) was “statistically detectable level”. In the data set with acute asthma mice (acute asthma, d24), the “classical monocytes (Ly6C−) in BAL” value is “increased”, the “number of peripheral blood mononuclear cells” value is “prevented a significant increase”, the “plasma IL-4 (cytometric bead array)” value is listed as “decreased” and the “plasma IL-5 (cytometric bead array)” value is “decreased”. In the data set with acute asthma mice (acute asthma, d24), the “plasma IL-13 (cytometric bead array)” value was “decreased”, the “plasma MCP-1 (cytometric bead array)” value is “decreased”, the “plasma MIP1α (cytometric bead array)” value was “decreased” and the “plasma MIP1β (cytometric bead array)” value is “decreased”. In the data set on acute asthma mice (acute asthma, d24), the “plasma RANTES (cytometric bead array)” value was “decreased” and the “plasma TNF (cytometric bead array)” value is listed as “decreased”. For the same substance, the “inflammatory monocytes (Ly6C+) in BAL” value in the data set with acute asthma mice (acute asthma, d24, vs PBS asthmatic controls) was “significantly fewer; also recorded: decreased”. In the data set on acute asthma mice (acute asthma, day 24), the “BAL eosinophil absolute counts” value is “reduced; also recorded: statistical reduction”, the “BAL number of lymphocytes” value was “did not affect; also recorded: non-statistical trend towards decreased”, the “BAL number of monocytes” value is on record as “did not affect” and the “BAL number of neutrophils” value was “did not affect; also recorded: non-statistical trend towards decreased”. For the same substance, the “reduction of total absolute BAL counts” value in the data set with acute asthma mice (acute asthma, systemic (IP) treatment, flow cytometry) is listed as 25%. In the data set on acute asthma mice (non-asthmatic mice), the “BAL cell numbers in the absence of asthma” value is “no effect”. In addition, the “effect on Eo/B progenitors” value with Eo/B progenitors was “impacts the Eo/B progenitors directly”.

The values are drawn from patent US9186390B2, “Methods and uses of TIE2 binding and/or activating agents” (Sunnybrook Health Sciences Center, priority 2010, dated 2015).
